In patent publication US20250282770A1, “BIOLUMINESCENT PROBES TO TRACK STEM CELLS IN VIVO” (THE BOARD OF TRUSTEES OF THE UNIVERSITY OF ILLINOIS, priority 2024, published 2025):

Assays:
ALDH1A1 [1] = molecular target: T1, ALDH1A1 (Mus musculus, UniProt P24549); assay: DEAB inhibition of AlDeLuc activation in 4T1 cells; type: cell-based, murine; set-up: host or cells: 4T1 murine mammary carcinoma cells; details: DEAB 500 μM; AlDeLuc 100 μM; 4T1 lysates
T1 sequence (P24549 1-501): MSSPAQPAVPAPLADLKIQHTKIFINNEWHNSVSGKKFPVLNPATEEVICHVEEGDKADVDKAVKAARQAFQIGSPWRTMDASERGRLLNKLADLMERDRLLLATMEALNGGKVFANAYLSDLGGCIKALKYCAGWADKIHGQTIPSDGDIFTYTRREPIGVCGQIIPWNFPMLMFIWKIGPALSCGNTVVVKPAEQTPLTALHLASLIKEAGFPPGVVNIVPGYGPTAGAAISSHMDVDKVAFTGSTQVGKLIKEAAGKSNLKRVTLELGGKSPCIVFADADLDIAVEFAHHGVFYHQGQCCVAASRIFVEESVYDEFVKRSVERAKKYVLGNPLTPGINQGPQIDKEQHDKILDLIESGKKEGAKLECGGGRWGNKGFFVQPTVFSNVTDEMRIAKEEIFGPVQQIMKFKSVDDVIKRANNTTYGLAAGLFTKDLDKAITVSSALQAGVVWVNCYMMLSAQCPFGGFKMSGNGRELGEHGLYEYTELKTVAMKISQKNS
Method: Validation of ALDH-Mediated Activation of AlDeLuc in Murine Breast Cancer Cells. 4T1 cells were cultured in T75 culture flasks. After two days, cells had become ˜90% confluent. An aliquot of RPMI 1640 media (1 mL) was removed from each flask and replaced with either DEAB ([…], 0.5% DMSO) or vehicle (0.5% DMSO). After incubation for one hour, the solutions were aspirated, washed with PBS, and resuspended in fresh RPMI 1640 media (9 mL). Each flask was then incubated with the AlDeLuc (100 μM) and DEAB (500 μM) or AlDeLuc (100 μM) and vehicle (DMSO), each with a final concentration of 1% DMSO. After 60 minutes, this solution was aspirated, washed with fresh PBS, and detached from the culture flasks. The cells were then transferred to a 15 mL centrifuge tube and pelleted at 1000 rpm for 5 minutes at room temp. The cells were resuspended in PBS along with 10% protease inhibitor solution (1 protease inhibitor mini tablet per 10 mL of PBS, Pierce, Thermo Fisher Scientific) and sonicated on ice for 2.5 minutes (pulse 01, 01, 40%). The cell debris was removed via centrifugation and the supernatant was plated ([…]) into a 96-well plate (n=4 for each condition). […] ROIs were drawn around each well and the signal intensity was quantified using the Living Image Analysis software.

ALDH1A1 [2] = molecular target: T1, ALDH1A1; assay: Validation of ALDH-mediated activation of AlDeLuc in heterotopic breast cancer model via DEAB inhibition; type: in vivo, BALB/c mice; set-up: from tissue; host or cells: 4T1-Luc tumours in BALB/c mice
Method: Validation of ALDH-mediated Activation of AlDeLuc in a Heterotopic Breast Cancer Model via DEAB Inhibition. BALB/c mice bearing 4T1-Luc tumors were anesthetized using isoflurane (1-3% for maintenance; up to 5% for induction) in oxygen from a precision vaporizer. After testing to ensure animals are fully under anesthesia, each mouse was administered AlDeLuc via retro-orbital injection (0.55 mg/kg, 1:19 v/v DMSO:PBS). Images were captured using the IVIS imaging system 40 minutes after injection. Bioluminescence light was captured in open mode (no filters were applied). ROIs were drawn around each tumor and summed for each animal. The signal intensity was quantified using the Living Image Analysis Software. After two days, the same animals were anesthetized and co-administered a solution of AlDeLuc and DEAB (0.55 mg/kg and 93 mg/kg respectively, 1:19 v/v DMSO:PBS). After the allotted 40 minutes, the images were captured using the IVIS imaging system. Bioluminescence was collected in open mode (no filters were applied). ROIS were drawn around each tumor and summed for each animal. The signal intensity was quantified using the Living Image Analysis Software.

[3] = tested on: ALDH1A1 activity in 4T1 cells; assay: Influence of L-NMMA on ALDH1A1 activity in 4T1 cells using AlDeLuc; type: cell-based, murine; details: L-NMMA 1 mM; AlDeLuc 50 μM
Method: Influence of L-NMMA on ALDH1A1 activity in 4T1 Cells Using AlDeLuc. 4T1 cells were cultured in T75 culture flasks. After two days, cells had become ˜90% confluent. The media was aspirated and 9 mL of fresh media was added. The flasks were then treated with L-NMMA (1 mM, cell culture water) or vehicle (cell culture water). After incubation for 60 minutes, the solutions were aspirated, washed with PBS, and resuspended in fresh RPMI 1640 media (9 mL). AlDeLuc was added to each flask (50 M, 5% v/v DMSO:PBS) for a final concentration of 0.5% DMSO per flask. After 60 minutes this solution was aspirated, washed with fresh PBS, and detached from the culture flasks. The cells were then transferred to a 15 mL centrifuge tube and pelleted at 1000 rpm for 5 minutes at room temp. The cells were resuspended in PBS along with 10% protease inhibitor solution (1 protease inhibitor mini tablet per 10 mL of PBS, Pierce, Thermo Fisher Scientific) and sonicated on ice for 2.5 minutes (pulse 01, 01, 40%). The cell debris was removed via centrifugation and the supernatant was plated (95 L/well) into a 96-well plate (n=4 for each condition). Each well was treated with luciferase (5 μL, 1 mg/mL) and immediately imaged using the IVIS imaging system in open mode. ROIs were drawn around each well and the signal intensity was quantified using the Living Image Analysis software.

iNOS = assay: Immunohistochemical analysis of excised 4T1-Luc tumors; type: in vivo, BALB/c mice; details: L-NMMA 50 mg/kg versus vehicle; high-fat diet
From the text: Diet-Induced Inflammation Modulates ALDH1A1 Activity in a Murine Model of Breast Cancer. Finally, to examine how NO influences ALDH1A1 activity in vivo we placed BALB/c mice (female, 5-7 weeks old) on a high-fat diet for 40 weeks to induce an inflammatory response through elevated NO production. This period consists of a ˜20-week priming period prior to inoculation of the animals with 4T1-Luc cells at the mammary fat pad. At this point, the mice were randomized into two groups. The treatment group was administered L-NMMA (50 mg/kg), whereas the control group received water via oral gavage for 20 days. The day after the final treatment, mice from both conditions were treated systemically with AlDeLuc, and the bioluminescence was monitored (FIG. 5e). […] At the completion of the diet study, animals were sacrificed, and their tumors were excised for further immunohistochemical analysis. Specifically, we determined that iNOS expression in tumors treated with L-NMMA was reduced. […] That is, reducing the levels of NO has the effect of increasing ALDH1A1 activity (as determined with AlDeLuc), as well as overall protein expression levels (FIG. 5h).

[4] = tested on: intracellular levels of NO; assay: Intracellular NO levels in 4T1-Luc cells with BL660NO probe; type: cell-based, murine; details: 30 minutes
Method: FIG. 14A-D. a) 4T1-Luc cells administered BL660NO (NO-responsive bioluminescent probe; 39 μM) after incubation with DEA-NONOate (50 μM) for 30 minutes. b) Quantified data from a. c) 4T1-Luc cells administered BL660NO (20 μM) after incubation with L-NMMA (1 mM) for 30 minutes. d) Quantified data from c. Statistical analysis was performed using two-tailed Student's t-test with Welch's correction (α=0.05), *ρ<0.05.

ALDH1A1 activity = assay: High-fat diet inflammatory model, orthotopic 4T1-Luc tumors, AlDeLuc imaging after L-NMMA; type: in vivo, BALB/c mice; details: L-NMMA 50 mg/kg oral gavage 20 days, AlDeLuc 0.55 mg/kg
Method: (§1) Finally, to examine how NO influences ALDH1A1 activity in vivo we placed BALB/c mice (female, 5-7 weeks old) on a high-fat diet for 40 weeks to induce an inflammatory response through elevated NO production. This period consists of a ˜20-week priming period prior to inoculation of the animals with 4T1-Luc cells at the mammary fat pad. At this point, the mice were randomized into two groups. The treatment group was administered L-NMMA (50 mg/kg), whereas the control group received water via oral gavage for 20 days. The day after the final treatment, mice from both conditions were treated systemically with AlDeLuc, and the bioluminescence was monitored (FIG. 5e). […] At the completion of the diet study, animals were sacrificed, and their tumors were excised for further immunohistochemical analysis.
Generation of an Orthotopic 4T1-Luc Breast Cancer Model for Diet Studies. Female BALB/c mice (˜6 weeks old) were inoculated with 4T1-Luc cells (50 μL of 1×10^5 cells in 1:1 v/v serum-free RPMI 1640 media and Matrigel) via subcutaneous injections into the mammary fat pad. Tumor volumes were measured using the caliper method every three days. Body weight was measured daily over the course of the experiment.

ALDH1A1 [5] = assay: Immunohistochemical analysis of excised 4T1-Luc tumors; type: in vivo, BALB/c mice; details: L-NMMA 50 mg/kg versus vehicle; high-fat diet; opposite to reduced iNOS
Method: as §1

[6] = tested on: ALDH1A1 activity in 4T1 cells; assay: Effect of nitric oxide (DETA NONOate) on ALDH1A1 activity in 4T1 cells using AlDeLuc; type: cell-based, murine; details: DETA NONOate 50 μM, 2-day treatment; AlDeLuc 2 μM
Method: Exploring the Effect of Nitric Oxide on ALDH1A1 activity in 4T1 Cells Using AlDeLuc. 4T1 cells were cultured in T75 flasks, and once they reached ˜30% confluency (1 day), the media was removed and replaced with fresh RPMI 1640 media supplemented with either DETA NONOate (50 μM) or vehicle (media). After 24 hours, the media was aspirated, and the cells were treated once more with RPMI 1640 media containing either DETA NONOate (50 μM) or vehicle (media). After […], the suspension was removed and cells were treated with AlDeLuc (2 μM, final concentration of 0.01% DMSO). After 60 minutes the AlDeLuc solution was aspirated, washed with fresh PBS, and detached from the culture flasks. The cells were then transferred to a 15 mL centrifuge tube and pelleted at 1000 rpm for 5 minutes at room temp. The cells were resuspended in PBS along with 10% protease inhibitor solution (1 protease inhibitor mini tablet per 10 mL of PBS, Pierce, Thermo Fisher Scientific) and sonicated on ice for 2.5 minutes (pulse 01, 01, 40%). The cell debris was removed via centrifugation and the supernatant was plated (95 μL/well) into a 96-well plate (n=4 for each condition). Each well was treated with luciferase (5 μL, 1 mg/mL) and immediately imaged using the IVIS imaging system in open mode. ROIs were drawn around each well and the signal intensity was quantified using the Living Image Analysis software.

[7] = tested on: ALDH1A1 activity in 4T1 cells; assay: Influence of interferon-gamma on ALDH1A1 activity in 4T1 cells using AlDeLuc; type: cell-based, murine; details: INF-γ 26.8 ng/mL, 12 hours; AlDeLuc 50 μM
Method: Influence of Interferon-gamma (INF-γ) on ALDH1A1 activity in 4T1 Cells Using AlDeLuc. 4T1 cells were cultured in T75 culture flasks. After two days, cells had become ˜90% confluent. An aliquot of RPMI 1640 was removed (26.8 μL) and the flasks were then treated with INF-γ (26.8 μL of […] stock in PBS, 26.8 ng/mL final conc.) or vehicle (26.8 μL PBS). After 12 hours, the solutions were aspirated, washed with PBS, and resuspended in fresh RPMI 1640 media (9 mL). AlDeLuc was added to each flask ([…], 5% v/v DMSO:PBS) for a final concentration of 0.5% DMSO per flask. After 60 minutes this solution was aspirated, washed with fresh PBS, and detached from the culture flasks. The cells were then transferred to a 15 mL centrifuge tube and pelleted at 1000 rpm for 5 minutes at room temp. The cells were resuspended in PBS along with 10% protease inhibitor solution (1 protease inhibitor mini tablet per 10 mL of PBS, Pierce, Thermo Fisher Scientific) and sonicated on ice for 2.5 minutes (pulse 01, 01, 40%). The cell debris was removed via centrifugation and the supernatant was plated (95 μL/well) into a 96-well plate (n=4 for each condition). Each well was treated with luciferase (5 μL, 1 mg/mL) and immediately imaged using the IVIS imaging system in open mode. ROIs were drawn around each well and the signal intensity was quantified using the Living Image Analysis software.

CCN(CC)c1ccc(C=O)cc1 [DEAB, diethylaminobenzaldehyde]
diminished bioluminescent signal relative to uninhibited cells (ALDH1A1 [1]): approximately 5 fold | difference in total luminescent counts, AlDeLuc alone versus DEAB co-treated (ALDH1A1 [2]; DEAB 93 mg/kg, AlDeLuc 0.55 mg/kg): 2.8 fold | total luminescent counts (ALDH1A1 [2]; co-treated DEAB 93 mg/kg and AlDeLuc 0.55 mg/kg, 40 min): 0.78±0.28×10^4

CNC(=N)NCCC[C@H](N)C(=O)O [L-NMMA]
bioluminescence higher compared to vehicle-treated cells [3]: 2.4 fold | iNOS expression in tumors (iNOS): reduced | intracellular levels of NO ([4]; L-NMMA 1 mM): decreasing | enhancement in total luminescent counts compared to control group (ALDH1A1 activity): 5.9 fold | total luminescent counts (ALDH1A1 activity; 40 min): 9.9±2.7×10^4 | ALDH1A1 expression in tumors (ALDH1A1 [5]): opposite trend

NCCN(CCN)/[N+]([O-])=N/O [DETA NONOate]
bioluminescence decreased [6]: 1.3 fold

CCN(CC)/[N+]([O-])=N/O.CCNCC [DEA NONOate]
intracellular levels of NO ([4]; DEA NONOate 50 μM): increasing

IFN-γ: interferon gamma, shown to stimulate NO production via inducible nitric oxide synthase
bioluminescence signal lower relative to vehicle-treated control cells [7]: 3.2 fold
